Each block holds one molecule with its values, some of them ahead of it.
How the values were obtained:
[1] = human, in vivo
Experimental: (§2) Female patients with a singleton pregnancy received intramuscular doses of 250 mg hydroxyprogesterone caproate for the reduction of preterm birth starting between 16 weeks 0 days and 20 weeks 6 days. More particularly, the patients were divided into three sample groups: Group 1 (patients at 16-20 weeks gestation); Group 2 (patients at 24-28 weeks gestation); and Group 3 (patients at 32-36 weeks gestation). All patients had blood drawn daily for 7 days to evaluate pharmacokinetics.

THP-1 mononuclear cells = assay: LPS-induced cytokine production by THP-1 mononuclear cells (multiplex assay); assay type: cell-based; details: 100 nM for 24 hours, then LPS 1 μg/mL for 24 hours
Experimental: In this Example, the ability of HPC—OH to decrease systemic inflammation-induced myometrial contractility was compared to HPC and progesterone (P4).
(§1) An in vitro model of systemic inflammation-induced uterine contractility was created with mononuclear and myometrial cell cultures to assess the effect of progestogen treatment. THP-1 mononuclear cells were cultured with HPC—OH (17α-hydroxyprogesteryl 6-hydroxycaproate), HPC, or P4 (all at 100 nM) for 24 hours then treated with lipopolysaccharide (LPS, 1 μg/mL) for 24 hours. Culture supernatant was characterized by multiplex assay for 7 inflammation-related cytokines: IL-1α, […], IL-6, IL-8, IL-10, TNFα, and MCP-1. Next, PHM1-41 human pregnancy myometrial cells pretreated with HPC for 24 hours were incubated with THP-1 culture supernatant (from the previous step) for 24 hours. Myometrial contractility was assessed after stimulation with 100 μM oxytocin by in-cell western (ICW) quantification of myosin light chain (MLC20) phosphorylation, a molecular event preceding contractility.

human myometrial tissue = assay: Oxytocin-induced uterine contractility in human myometrial tissue strips (myograph); assay type: cell-based; details: oxytocin 100 nm; for oxytocin-induced contractile force (AUC) / oxytocin-induced contractile frequency: 10^−6 M for 30 minutes, over a 4-hour period, normalized to matched vehicle control (DMSO)
Experimental: In this Example, the effect of the monohydroxylated 17α-hydroxyprogesterone caproate (HPC-OH), 17α-hydroxyprogesteryl 6-hydroxycaproate, as compared to its parent compound, 17-hydoxyprogesterone caproate (HPC), and progesterone (P4) was analyzed in the setting of oxytocin-induced uterine contractility in human myometrial tissue. […] Myometrial strips (10 mm) were mounted in a digital myograph system ([…]) and maintained in modified Krebs buffer solution at physiologic temperature (37° C.) with constant premixed gas inflow. Oxytocin-induced (100 nm) contractility was measured before and after treatment with HPC-OH, HPC, or P4 (1 μm) for 30 minutes. Myometrial contractile frequency and force (AUC) were determined for each treatment over a 4-hour period and normalized to a matched vehicle control (DMSO). Statistical analysis was by student t-test (GraphPad Prism 7.0a). Statistical significance was defined as p<0.05.

[2] = test system: PHM1-41 human pregnancy myometrial cells; assay: MLC20 phosphorylation by in-cell western in HPC-primed myometrial cells incubated with THP-1 culture supernatant; assay type: cell-based; details: supernatant of treated THP-1 cells for 24 hours, 100 μM oxytocin
Experimental: as §1

[3] = Pharmacokinetics in pregnant patients given intramuscular hydroxyprogesterone caproate; details: female, human, plasma, im, 250 mg; for AUC: AUC(1-t); for AUC / Cmax / Tmax: 250 mg intramuscular; for AUC / Cmax: mean (standard deviation)
Experimental: as §2

[4] = women with history of prior spontaneous preterm birth, clinical trials; cited from earlier work
[5] = Group 1 (16-20 weeks gestation, N = 6)
[6] = Group 2 (24-28 weeks gestation, N = 8)
[7] = Group 3 (32-36 weeks gestation, N = 11)

Structure (SMILES): CC(=O)[C@@]1(OC(=O)CCCCCO)CC[C@H]2[C@@H]3CCC4=CC(=O)CC[C@]4(C)[C@H]3CC[C@@]21C [HPC—OH, 17α-hydroxyprogesteryl 6-hydroxycaproate]
- half-life as compared to HPC [1]: longer half-life
- monocyte production of IL-1α (THP-1 mononuclear cells): did not result in a statistically significant change
- monocyte production of IL-1β (THP-1 mononuclear cells): did not result in a statistically significant change
- monocyte production of IL-6 (THP-1 mononuclear cells): did not result in a statistically significant change
- monocyte production of IL-8 (THP-1 mononuclear cells): did not result in a statistically significant change
- production of IL-10 (THP-1 mononuclear cells): did not diminish
- production of MCP-1 (THP-1 mononuclear cells): decreased
- significantly increase TNFα production (THP-1 mononuclear cells): not
- levels of TNFα produced, compared with exposure to HPC (THP-1 mononuclear cells; versus HPC): significantly lower
- oxytocin-induced contractile force (AUC) (human myometrial tissue): 66%+/−33%
- oxytocin-induced contractile frequency (human myometrial tissue): 67%+/−21%
- contractile force when compared directly to HPC (human myometrial tissue; 10^−6 M, compared directly to HPC): 64%+/−33%
- MLC20 phosphorylation compared with HPC treated supernatant ([2]; versus HPC treated supernatant): trended towards a significant decline

- half-life [3]: 394 h
- AUC [3, 5]: 571 ng·h/mL
- AUC [3, 6]: 1270 ng·h/mL
- AUC [3, 7]: 1270 ng·h/mL
- Cmax [3, 5]: 5 ng/mL
- Cmax [3, 6]: 12.5 ng/mL
- Cmax [3, 7]: 12.3 ng/mL
- Tmax [3, 5]: 132 h
- Tmax [3, 6]: 24 h
- Tmax [3, 7]: 48 h
Structure (SMILES): CCCCCC(=O)O[C@]1(C(C)=O)CC[C@H]2[C@@H]3CCC4=CC(=O)CC[C@]4(C)[C@H]3CC[C@@]21C [HPC, 17α-hydroxyprogesterone caproate]
- production of IL-10 (THP-1 mononuclear cells): significantly reduced
- production of MCP-1 (THP-1 mononuclear cells): decreased
- significantly increase TNFα production (THP-1 mononuclear cells): significantly increase
- oxytocin-induced contractile frequency (human myometrial tissue): 71%+/−15%
- risk reduction of recurrent preterm delivery [4]: 33%

Structure (SMILES): CC(=O)[C@H]1CC[C@H]2[C@@H]3CCC4=CC(=O)CC[C@]4(C)[C@H]3CC[C@]12C [P4, progesterone]
- production of IL-10 (THP-1 mononuclear cells): did not diminish
- oxytocin-induced contractile force (AUC) (human myometrial tissue): 75%+/−30%
- oxytocin-induced contractile frequency (human myometrial tissue): 63%+/−18%
- MLC20 phosphorylation [2]: Increased phosphorylation
